Laboratory results reported in patent publication US9029391B2 (priority 2011, dated 2015).

Test system: HIV
Test: MT4 Assay (anti-HIV activity)
Format: cell-based
Conditions: Human immunodeficiency virus 1, 96 h, read-out: HIV MT4 Assay IC50, HTLV-1 transformed cell line MT-4, cell titer glo, 10 point dose response curve
How it was run: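 IC50 values were fitted to 10-point dose-response series (3-4-fold dilutions, range >1000-fold), normalized to no-compound control. CellTiter-Glo read-out was taken after 96 hours in HTLV-1-transformed MT-4 cells. Cytotoxicity was measured in parallel under identical conditions.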

SMILES | IC50 [nM]
Cc1c(-c2c([C@H](OC(C)(C)C)C(=O)O)n(C)c(=O)c3cc(-c4cnn(CCC(C)C)c4)ccc23)cc(F)c2c1CCCO2 (atropisomer, axis not shown; (M)) [Example 201, (2S)(M)-[(1,1-dimethylethyl)oxy]{4-(8-fluoro-5-methyl-3,4-dihydro-2H-chromen-6-yl)-2-methyl-7-[1-(3-methylbutyl)-1H-pyrazol-4-yl]-1-oxo-1,2-dihydro-3-isoquinolinyl}ethanoic acid] | 40
Cc1c(-c2c([C@H](OC(C)(C)C)C(=O)O)n(C)c(=O)c3cc(Br)ccc23)cc(F)c2c1CCCO2 (atropisomer, axis not shown; (M)) [Example 164, (2S)(M)-[7-bromo-4-(8-fluoro-5-methyl-3,4-dihydro-2H-chromen-6-yl)-2-methyl-1-oxo-1,2-dihydro-3-isoquinolinyl][(1,1-dimethylethyl)oxy]ethanoic acid] | 460
Cc1c(-c2c([C@H](OC(C)(C)C)C(=O)O)n(C)c(=O)c3cc(OCc4ccc(F)cc4)ccc23)ccc2c1CCCO2 [Example 147, (2S)-2-(tert-butoxy)-2-{7-[(4-fluorophenyl)methoxy]-2-methyl-4-(5-methyl-3,4-dihydro-2H-1-benzopyran-6-yl)-1-oxo-1,2-dihydroisoquinolin-3-yl}acetic acid] | 20
Cn1c(C(OC(C)(C)C)C(=O)O)c(-c2ccccc2)c2ccccc2c1=O (centres unmarked) [Example 156, [(1,1-dimethylethyl)oxy](2-methyl-1-oxo-4-phenyl-1,2-dihydro-3-isoquinolinyl)acetic acid] | 800
Cc1c(-c2c([C@H](OC(C)(C)C)C(=O)NS(C)(=O)=O)n(C)c(=O)c3ccccc23)cc(F)c2c1CCCO2 (atropisomer, axis not shown; (M)) [Example 215, (2S)(M)-2-[(1,1-dimethylethyl)oxy]-2-[4-(8-fluoro-5-methyl-3,4-dihydro-2H-chromen-6-yl)-2-methyl-1-oxo-1,2-dihydro-3-isoquinolinyl]-N-(methylsulfonyl)ethanamide] | 11100
Cc1ccc(-c2c(C(OC(C)(C)C)C(=O)O)n(C)c(=O)c3ccccc23)cc1 (centres unmarked) [Example 7, 2-(tert-butoxy)-2-[2-methyl-4-(4-methylphenyl)-1-oxo-1,2-dihydroisoquinolin-3-yl]acetic acid] | 700
Cc1c(-c2c(C(OC(C)(C)C)C(=O)O)n(C)c(=O)c3cc(OCc4ccccn4)ccc23)ccc2c1CCCO2 (centres unmarked) [Example 129, 2-(tert-butoxy)-2-[2-methyl-4-(5-methyl-3,4-dihydro-2H-1-benzopyran-6-yl)-1-oxo-7-(pyridin-2-ylmethoxy)-1,2-dihydroisoquinolin-3-yl]acetic acid] | 200
Cc1c(-c2c([C@H](OC(C)(C)C)C(=O)O)n(C)c(=O)c3cc(N4CCOCC4)ccc23)cc(F)c2c1CCCO2 (atropisomer, axis not shown; (M)) [Example 168, (S)(M)-2-(tert-butoxy)-2-(4-(8-fluoro-5-methylchroman-6-yl)-2-methyl-7-morpholino-1-oxo-1,2-dihydroisoquinolin-3-yl)acetic acid] | 260
Cc1c(-c2c(C(OC(C)(C)C)C(=O)O)n(C)c(=O)c3cc(OCc4cc(F)ccc4F)ccc23)ccc2c1CCCO2 (centres unmarked) [Example 95, 2-(tert-butoxy)-2-{7-[(2,5-difluorophenyl)methoxy]-2-methyl-4-(5-methyl-3,4-dihydro-2H-1-benzopyran-6-yl)-1-oxo-1,2-dihydroisoquinolin-3-yl}acetic acid] | 90
Cc1ccc2c(-c3cc(F)c4c(c3C)CCCO4)c([C@H](OC(C)(C)C)C(=O)O)n(C)c(=O)c2c1 [Example 131, (2S)-2-(tert-butoxy)-2-[4-(8-fluoro-5-methyl-3,4-dihydro-2H-1-benzopyran-6-yl)-2,7-dimethyl-1-oxo-1,2-dihydroisoquinolin-3-yl]acetic acid] | 20
Cn1c(C(OC(C)(C)C)C(=O)O)c(-c2ccc3c(c2)CCCO3)c2cc(Cl)ccc2c1=O (centres unmarked) [Example 26, 2-(tert-butoxy)-2-[6-chloro-4-(3,4-dihydro-2H-1-benzopyran-6-yl)-2-methyl-1-oxo-1,2-dihydroisoquinolin-3-yl]acetic acid] | 1900
COc1ccc2c(-c3ccc4c(c3)CCCO4)c(C(OC(C)(C)C)C(=O)O)n(C)c(=O)c2c1 (centres unmarked) [Example 72, 2-(tert-butoxy)-2-[4-(3,4-dihydro-2H-1-benzopyran-6-yl)-7-methoxy-2-methyl-1-oxo-1,2-dihydroisoquinolin-3-yl]acetic acid] | 400
Cc1ccc(-c2c([C@H](OC(C)(C)C)C(=O)O)n(C)c(=O)c3ccccc23)cc1C [Example 3, (S)-2-(tert-butoxy)-2-(4-(3,4-dimethylphenyl)-2-methyl-1-oxo-1,2-dihydroisoquinolin-3-yl)acetic acid] | 440
Cc1ccc(N(C)c2c(C(OC(C)(C)C)C(=O)O)n(C)c(=O)c3ccccc23)cc1C (centres unmarked) [Example 212, 2-(tert-Butoxy)-2-(4-((3,4-dimethylphenyl)(methyl)amino)-2-methyl-1-oxo-1,2-dihydroisoquinolin-3-yl)acetic acid] | 50000
Cc1c(-c2c([C@H](OC(C)(C)C)C(=O)O)n(C)c(=O)c3cc(OCc4ccc(F)c(F)c4)ccc23)ccc2c1CCCO2 [Example 108, (2S)-2-(tert-butoxy)-2-{7-[(3,4-difluorophenyl)methoxy]-2-methyl-4-(5-methyl-3,4-dihydro-2H-1-benzopyran-6-yl)-1-oxo-1,2-dihydroisoquinolin-3-yl}acetic acid] | 30
CC(=O)N1CCOc2ccc(-c3c(C(OC(C)(C)C)C(=O)O)n(C)c(=O)c4ccccc34)c(Cl)c21 (centres unmarked) [Example 116, 2-[4-(4-acetyl-5-chloro-3,4-dihydro-2H-1,4-benzoxazin-6-yl)-2-methyl-1-oxo-1,2-dihydroisoquinolin-3-yl]-2-(tert-butoxy)acetic acid] | 33200
Cc1c(-c2c(C(OC(C)(C)C)C(=O)O)n(C)c(=O)c3cc(O)ccc23)ccc2c1CCCO2 (centres unmarked) [Example 84, 2-(tert-butoxy)-2-[7-hydroxy-2-methyl-4-(5-methyl-3,4-dihydro-2H-1-benzopyran-6-yl)-1-oxo-1,2-dihydroisoquinolin-3-yl]acetic acid] | 26000
Cn1c(C(OC(C)(C)C)C(=O)O)c(-c2ccc3c(c2)CCCO3)c2cccc(F)c2c1=O (centres unmarked) [Example 35, 2-(tert-butoxy)-2-[4-(3,4-dihydro-2H-1-benzopyran-6-yl)-8-fluoro-2-methyl-1-oxo-1,2-dihydroisoquinolin-3-yl]acetic acid] | 1890
COc1cc2c(=O)n(C)c(C(OC(C)(C)C)C(=O)O)c(-c3ccc4c(c3C)CCCO4)c2cc1C (centres unmarked) [Example 120, 2-(tert-butoxy)-2-[7-methoxy-2,6-dimethyl-4-(5-methyl-3,4-dihydro-2H-1-benzopyran-6-yl)-1-oxo-1,2-dihydroisoquinolin-3-yl]acetic acid] | 230
Cc1c(-c2c([C@H](OC(C)(C)C)C(=O)O)n(C)c(=O)c3cc(CCc4ccccc4)ccc23)cc(F)c2c1CCCO2 (atropisomer, axis not shown; (M)) [Example 176, (2S)(M)-[(1,1-dimethylethyl)oxy][4-(8-fluoro-5-methyl-3,4-dihydro-2H-chromen-6-yl)-2-methyl-1-oxo-7-(2-phenylethyl)-1,2-dihydro-3-isoquinolinyl]ethanoic acid] | 50
